Tests used:
MTT cytotoxicity study = format: cell-based, C57bl/6j mice; settings: male, C57bl/6j, mouse; peritoneal macrophages, 24 h incubation
Protocol: (§1) Peritoneal macrophages (PM) were isolated from the peritoneal exudate of 30 male C57bl/6j mice. To accumulate PM, 1 mL of 3% peptone solution was injected intraperitoneally. After 3 days, the mice were euthanized by cervical dislocation. Cells of peritoneal exudate were obtained by aseptic washing of the abdominal cavity with 5 mL of sterile Hanks’s solution (+4–6 °C) without calcium and magnesium ions. The total number and viability of cells were assessed in a Goryaev counting chamber (Russia) with a 0.4% trypan blue staining (Sigma-Aldrich, St. Louis, MO, USA). The cell concentration was adjusted to 1.0 × 10^6 cells/mL in DMEM (Gibco, Waltham, MA, USA) supplemented with 2 mM L-glutamine (Gibco), 10% heat-inactivated fetal bovine serum (BioClot, Bavaria, Germany), 100 U/mL penicillin, and […] streptomycin (Gibco) and plated 200 µL/well in 96-well transparent plates (SPL Life Sciences Co., Ltd., Pocheon-si, Republic of Korea). After 2 h at 37 °C in a humidified atmosphere with 5% CO2, the wells were washed to remove non-adherent cells. After 24 h of incubation, 20 µL of the supernatants were substituted with 20 µL of solutions of test compounds, followed by E. coli O127:B8 LPS (100 ng/mL final concentration) after 30 min. The experiments were run in 3 independent replicates.
(§2) The activity of lactate dehydrogenase (LDH) in a cell culture medium served as a marker of membrane permeability and cell death. Aliquots of supernatants were taken after 24 h of inoculation with test compounds, mixed with 250 µL of […] NADH solution in 54 mM phosphate-buffered saline (pH 7.5). Then, 25 µL of a 6.48 mM pyruvate solution was added to the mixture. The optical density was followed at a wavelength of 340 nm for 20 min. The MTT test was performed 24 h after incubations of cells with tested compounds. Briefly, 20 µL of MTT solution was added to each well and incubated at 37 °C in a humidified atmosphere containing 5% CO2 for 4 h. The culture medium was removed, the cells were lysed, and formazan crystals were dissolved in 150 µL DMSO. The plates were shaken at room temperature for 10 min, and the optical density was measured in a microplate reader Infinite M200 PRO (Tecan, Grödig, Austria) at a wavelength of 565 nm.

[1] = test system: NO synthesis in LPS-stimulated primary murine peritoneal macrophages; assay: Inhibition of NO synthesis in LPS-stimulated macrophages (Griess); format: cell-based, C57bl/6j mice; settings: Mus musculus, Peritoneal macrophage; LPS-stimulated (100 ng/mL E. coli LPS) peritoneal macrophages, supernatants after 22 h; n.a. = not active
Protocol: as §1
The accumulation of the nitrite anion (a stable end product of NO decomposition) in supernatants was determined using a standard Griess reagent. Briefly, 50 µL of supernatants were collected 22 h after incubation of PM, and the test and control compounds were mixed with 50 µL of 1% sulfonamide in 2.5% H3PO4 and 50 µL of 0.1% N-(1-naphthyl) ethylenediamine in 2.5% H3PO4. After incubation at 23 °C for 10 min in an orbital shaker, the optical density was determined at a wavelength of 550 nm with a microplate reader Infinite M200 PRO (Tecan, Grödig, Austria).

[2] = test system: IL-6 release in LPS-stimulated primary murine peritoneal macrophages; assay: Inhibition of IL-6 release in LPS-stimulated macrophages (ELISA); format: cell-based, C57bl/6j mice; settings: Mus musculus, Peritoneal macrophage; LPS-stimulated (100 ng/mL E. coli LPS) peritoneal macrophages; n.a. = not active
Protocol: as §1
(§3) The cell supernatant was collected and centrifuged at 1000× g for 20 min in a 2–16 PK centrifuge (Sigma, Osterode am Harz, Germany). The concentrations of IL-6 and TNF-alpha were determined by ELISA using commercial kits (Cloud-clone, Houston, TX, USA) with a microplate reader Infinite M200 PRO (Tecan, Grödig, Austria).

[3] = test system: LPS-induced acute lung injury in C57BL/6J mice; assay: LPS-induced acute lung injury: histological study; format: in vivo; settings: 24 h after LPS; for Mean Injury Score (semi-quantitative morphological score of lung tissue damage): score 0-3, dexamethasone 5 mg/kg, 6e 30 mg/kg i.p. 1 h before oropharyngeal LPS
Protocol: (§4) The randomization of C57BL/6J mice was performed by body weight and motor activity in an open field test. […] The control animals received an equal volume of the vehicle. After 1 h, the mice were anesthetized with isoflurane inhalation until their breathing rate was decreased. The mice were suspended by the front incisors on an inclined surgical table, the tongue was pulled out with narrow curved tweezers, and 1 mg/mL of E. coli O127:B8 LPS (Sigma-Aldrich, St. Louis, MO, USA) in 1 mL/kg sterile saline was instilled into the back of the oropharynx. Intact control animals received an equal volume of sterile saline similarly.
(§5) The mice were anesthetized with 500 mg/kg chloral hydrate (Sigma-Aldrich, St. Louis, MO, USA) intraperitoneally 24 h after LPS administration. Blood was taken by intracardiac puncture in test tubes with heparin. The blood samples were centrifuged at 1000× g and 4 °C for 15 min on a 2–16 PK centrifuge (Sigma, Germany), and plasma was separated and stored at −80 °C until the assay. Thoracotomy was performed, the ligature was applied to the left bronchus and the trachea was cannulated with a 20 G needle. The right lung was washed twice with 0.7 mL of warm sterile saline. After combining aliquots, the bronchoalveolar lavage (BAL) was centrifuged at 800× g and 4 °C for 10 min. The supernatant was separated and stored at −80 °C until the assay. The residual cell pellet was resuspended in 50 µL of PBS for further study. The left lung was washed in saline and placed in 10% buffered formalin for morphological evaluation.
The sections were examined under a light microscope (Zeiss, Germany) by a double-blind method.

[4] = test system: LPS-induced acute lung injury in C57BL/6J mice; assay: LPS-induced acute lung injury: leukocyte markers in blood, BAL and spleen; format: in vivo; settings: dexamethasone 5 mg/kg, 6e 30 mg/kg i.p.; 24 h after LPS
Protocol: as §4, §5
The total number of leukocytes in heparinized blood was determined after staining with methylene blue in Goryaev’s counting chamber at ×100 magnification. Smears of blood and BAL cell pellets were air-dried, fixed according to May–Grunwald for 3 min, and stained according to Romanowsky–Giemsa. After 30 min, the slides were washed, air-dried, and examined with an immersion objective (×1000 total magnification). On each slide, a total of at least 100 cells were calculated.

[5] = test system: phagocytic activity of C57bl/6j peritoneal macrophages; assay: Phagocytosis assay (yeast); format: cell-based, C57bl/6j mice; settings: 72 h of incubation
Protocol: Peritoneal macrophages of C57bl/6j mice were cultured in a 24-well plate at a volume of 500 µL/well (1 × 10^5 cells/mL) for 24 h. Test compounds or DMSO were added to wells in triplicate followed by 50 µL of 1% yeast suspension, and the plates were incubated for 40 min. After 24 or 72 h, the medium was removed. The cells were fixed with May–Grunwald methanol dye and stained with Azur–Eosin in Romanovsky’s modification for 45 min at room temperature, washed, air-dried, and analyzed using a microscope Mikmed-6 (Russia), equipped with a digital camera. The study was performed in three technical replicates and two series; 100 macrophages were processed in each sample to count the captured yeast cells. Macrophage spreading was assessed as a number of pseudopodia.

[6] = test system: LPS-induced acute lung injury in C57BL/6J mice; assay: LPS-induced acute lung injury: open field test; format: in vivo; settings: 6e 30 mg/kg i.p., within 24 h after LPS; for motor activity in the open field test, in words: dexamethasone 5 mg/kg
Protocol: as §4
The animals were placed in the center of a round open field with an arena of 44 cm diameter and 32 cm wall height under 300 lux lighting. During 5 min of observation, horizontal motor activity, vertical motor activity, time spent in the central part, the number of exits to the central part, and exploratory activity parameters were recorded. Body temperature was determined rectally.

[7] = test system: LPS-induced acute lung injury in C57BL/6J mice; assay: LPS-induced acute lung injury: biochemical markers of inflammation (IL-6, lung permeability index); format: in vivo; settings: 6e 30 mg/kg i.p., 24 h after LPS
Protocol: as §3, §4, §5
The concentration of total protein in BAL supernatants was determined spectrophotometrically with the pyrogallol red method, and the protein in the blood plasma was determined with the biuret method using commercial kits (Vital, Saint Petersburg, Russia) and bovine serum albumin as the standard. The lung permeability index was calculated as the protein concentration in the BAL to plasma ratio.

peritoneal macrophages = assay: MTT cytotoxicity study; format: cell-based, C57bl/6j mice
Protocol: as §1, §2

Compound	CC50 at 24 h (MTT cytotoxicity study)	IC50 [1]	IC50 [2]	other results
Cc1nc(-c2ccc(N)cc2)cc(-c2ccc(N)cc2)n1 [Compound 6e]	> 100 µM	16.2 µM	18.4 µM	histological inflammatory lesions of the lung, in words ([3]; 6e 30 mg/kg i.p., H&E): limited inflammatory lesions; Mean Injury Score (semi-quantitative morphological score of lung tissue damage) [3]: 1.83; BAL: ratio of segmented neutrophils to monocytes, in words [4]: amelioration of this ratio; spleen lymphocytes (systemic immunosuppression), in words [4]: preserved normal content of spleen lymphocytes; phagocytic capacity (number of yeast cells per macrophage), in words [5]: retains a nearly normal phagocytic capacity; decrease of the phagocytic index ([5]; vs DMSO): 32%; exploratory behavior in the open field test, in words [6]: improved; motor activity in the open field test, in words [6]: increased the motor activity of mice but was inferior to dexamethasone activity; lung permeability index, in words ([7]; BAL to plasma protein ratio): preserving the vascular permeability at intact levels; markers of inflammation and lung damage (IL-6 in BAL and plasma, alveolar vessel permeability), in words ([7]; dexamethasone 5 mg/kg): normalized these markers of inflammation and lung damage; plasma IL-6 concentration, in words ([7]; dexamethasone 5 mg/kg): normalized it to intact levels
CSc1nc(-c2ccc(N)cc2)cc(-c2ccc(N)cc2)n1 [Compound 6g]	> 100 µM	0.12 µM	> 100 µM	–
Nc1ccc(-c2cc(-c3ccc(N)cc3)n3ncnc3n2)cc1 [Compound 7c]	47.1 µM	15.2 µM	2.2 µM	cytotoxicity in the MTT test, in words (peritoneal macrophages): pronounced cytotoxicity; macrophage phagocytic activity (number of phagocytes), in words [5]: preserve macrophage phagocytic activity; phagocytic capacity (number of yeast cells per macrophage), in words [5]: significantly suppressed macrophage phagocytic capacity; decrease of the mean number of phagocytosed particles ([5]; vs DMSO): 63%
Cc1nc(-c2ccc(N)cc2)cc(-c2cccc(N)c2)n1 [Compound 6d]	> 100 µM	–	–	–
Nc1ccc(-c2cc(-c3ccc(F)cc3)n3ncnc3n2)cc1 [Compound 7a]	> 100 µM	0.37 µM	14.9 µM	–
Cc1nc(-c2ccccc2)cc(-c2ccccc2N)n1 [Compound 6a]	> 100 µM	–	–	cytotoxicity in the MTT test, in words (peritoneal macrophages): pronounced cytotoxicity; macrophage phagocytic activity (number of phagocytes), in words [5]: preserve macrophage phagocytic activity; phagocytic capacity (number of yeast cells per macrophage), in words [5]: significantly suppressed macrophage phagocytic capacity; decrease of the mean number of phagocytosed particles ([5]; vs DMSO): 35%
Cc1nc(-c2ccc(N)cc2)cc(-c2ccc(F)cc2)n1 [Compound 6c]	> 100 µM	0.37 µM	34.9 µM	–
CCOC(=O)C1=C(C)NC(C)=NC1c1cccc(N)c1 (stereo not drawn) [Compound 10a]	> 100 µM	323 µM	–	–
CCOC(=O)C1=C(C)Nc2ncnn2C1c1cccc(N)c1 (stereo not drawn) [Compound 11a]	> 100 µM	–	–	–
Cc1nc(-c2ccccc2)cc(-c2ccc(N)cc2)n1 [Compound 6b]	65.6 µM	21.1 µM	2.18 µM	–
Nc1ccc(-c2cc(-c3cccc(N)c3)n3ncnc3n2)cc1 [Compound 7b]	> 100 µM	45.3 µM	31.4 µM	–
Nc1ccc(-c2cc(-c3ccc(N)cc3)nc(N)n2)cc1 [Compound 6f]	96.1 µM	42.9 µM	–	–
CCOC(=O)C1=C(C)NC(C)=NC1c1ccc(N)cc1 (stereo not drawn) [Compound 10b]	178 µM	71.8 µM	–	–
C[C@@H]1C[C@H]2[C@@H]3CCC4=CC(=O)C=C[C@]4(C)[C@@]3(F)[C@@H](O)C[C@]2(C)[C@@]1(O)C(=O)CO [Dexamethasone, reference compound]	97.4 µM	23.4 µM	2.5 µM	Mean Injury Score (semi-quantitative morphological score of lung tissue damage) [3]: 1.33; blood: recruitment of segmented neutrophils at the expense of lymphocytes, in words [4]: corrected by dexamethasone; spleen lymphocytes (systemic immunosuppression), in words [4]: significantly decreased proliferation of spleen lymphocytes; macrophage phagocytic activity (number of phagocytes), in words [5]: reducing both the number of phagocytes; phagocytic capacity (number of yeast cells per macrophage), in words [5]: reducing both the number of phagocytes and their phagocytic capacity; motor activity in the open field test, in words [6]: corrected by dexamethasone; plasma IL-6 concentration, in words ([7]; dexamethasone 5 mg/kg): normalized it to intact levels
CCOC(=O)C1=C(C)Nc2ncnn2C1c1ccc(N)cc1 (stereo not drawn) [Compound 11b]	> 100 µM	–	–	–

— paper PMC9863002, “Amino Derivatives of Diaryl Pyrimidines and Azolopyrimidines as Protective Agents against LPS-Induced Acute Lung Injury” (Molecules, 2023)
